Like-named read-outs stand apart in the source and are kept apart here.
Columns and labels:
Assay in all cases: Test C pre/postemergence
Format in all cases: in vivo
[1] = system: common ragweed (Ambrosia elatior); settings: Ambrosia artemisiifolia; for pest or weed control at 31 g/ha: 31 g ai/ha; for pest or weed control at 62 g/ha: 62 g ai/ha; for pest or weed control at 125 g/ha: 125 g ai/ha; for pest or weed control at 250 g/ha: 250 g ai/ha
How it was run: (§1)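 Greenhouse herbicide screen, visual readout. Compound in solvent/surfactant applied preemergence at planting or postemergence to 1- to 4-leaf plants; assessed at 12–14 days on a 0–100 control scale.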

[2] = system: Surinam grass (Brachiaria decumbens); settings: Urochloa decumbens; for pest or weed control at 125 g/ha: 125 g ai/ha; for pest or weed control at 31 g/ha: 31 g ai/ha; for pest or weed control at 62 g/ha: 62 g ai/ha; for pest or weed control at 250 g/ha: 250 g ai/ha
How it was run: as §1

[3] = system: goosegrass (Eleusine indica); settings: Eleusine indica; for pest or weed control at 31 g/ha: 31 g ai/ha; for pest or weed control at 62 g/ha: 62 g ai/ha; for pest or weed control at 125 g/ha: 125 g ai/ha; for pest or weed control at 250 g/ha: 250 g ai/ha
How it was run: as §1

[4] = system: velvetleaf (Abutilon theophrasti); settings: Abutilon theophrasti; for pest or weed control at 31 g/ha: 31 g ai/ha; for pest or weed control at 62 g/ha: 62 g ai/ha; for pest or weed control at 125 g/ha: 125 g ai/ha; for pest or weed control at 250 g/ha: 250 g ai/ha
How it was run: as §1

[5] = system: kochia (Kochia scoparia); settings: Bassia scoparia; for pest or weed control at 31 g/ha: 31 g ai/ha; for pest or weed control at 62 g/ha: 62 g ai/ha; for pest or weed control at 125 g/ha: 125 g ai/ha; for pest or weed control at 250 g/ha: 250 g ai/ha
How it was run: as §1

[6] = system: cocklebur (Xanthium strumarium); settings: Xanthium strumarium; for pest or weed control at 31 g/ha: 31 g ai/ha; for pest or weed control at 62 g/ha: 62 g ai/ha
How it was run: as §1

[7] = post-emergence, Postemergence, scale 0 to 100 (0 no effect, 100 complete control), read-out: Ragweed plant response rating
[8] = pre-emergence, Preemergence, scale 0 to 100, 0 no effect, 100 complete control, read-out: Plant response rating, Ragweed
[9] = pre-emergence, Preemergence, scale 0 to 100, read-out: Plant response rating, Ragweed
[10] = post-emergence, Postemergence, scale 0 to 100 (0 no effect, 100 complete control), read-out: Surinam Grass plant response rating
[11] = pre-emergence, Preemergence, scale 0 to 100, 0 no effect, 100 complete control, read-out: Plant response rating, Surinam Grass
[12] = pre-emergence, Preemergence, scale 0 to 100, read-out: Plant response rating, Surinam Grass
[13] = post-emergence, Postemergence, scale 0 to 100 (0 no effect, 100 complete control), read-out: Goosegrass plant response rating
[14] = pre-emergence, Preemergence, scale 0 to 100, 0 no effect, 100 complete control, read-out: Plant response rating, Goosegrass
[15] = pre-emergence, Preemergence, scale 0 to 100, read-out: Plant response rating, Goosegrass
[16] = post-emergence, Postemergence, scale 0 to 100 (0 no effect, 100 complete control), read-out: Velvetleaf plant response rating
[17] = pre-emergence, Preemergence, scale 0 to 100, 0 no effect, 100 complete control, read-out: Plant response rating, Velvetleaf
[18] = pre-emergence, Preemergence, scale 0 to 100, read-out: Plant response rating, Velvetleaf
[19] = post-emergence, Postemergence, scale 0 to 100 (0 no effect, 100 complete control), read-out: Kochia plant response rating
[20] = pre-emergence, Preemergence, scale 0 to 100, 0 no effect, 100 complete control, read-out: Plant response rating, Kochia
[21] = pre-emergence, Preemergence, scale 0 to 100, read-out: Plant response rating, Kochia
[22] = pre-emergence, Preemergence, scale 0 to 100, 0 no effect, 100 complete control, read-out: Plant response rating, Cocklebur

Work on `COC(=O)c1nc(C(C)C)nc(N)c1Br` [Compound 3] yielded a pest or weed control at 31 g/ha ([1]; post-emergence, Postemergence, read-out: Plant response rating (scale of 0 to 100), Ragweed) of 55%, a pest or weed control at 62 g/ha [1, 7] of 75% and a pest or weed control at 125 g/ha [1, 7] of 80%. The pest or weed control at 250 g/ha ([1]; post-emergence, Postemergence, scale 0 to 100, read-out: Plant response rating, Ragweed) was 95%, the pest or weed control at 31 g/ha [1, 8] was 0% and the pest or weed control at 62 g/ha [1, 8] was 0%. It also gave a pest or weed control at 125 g/ha [1, 9] of 0%, a pest or weed control at 250 g/ha [1, 9] of 45% and a pest or weed control at 125 g/ha [2, 10] of 0%. It also gave a pest or weed control at 31 g/ha ([2]; post-emergence, Postemergence, read-out: Plant response rating (scale of 0 to 100), Surinam Grass) of 0%, a pest or weed control at 62 g/ha [2, 10] of 0% and a pest or weed control at 250 g/ha ([2]; post-emergence, Postemergence, scale 0 to 100, read-out: Plant response rating, Surinam Grass) of 0%. For the same compound, the pest or weed control at 31 g/ha [2, 11] was 0%, the pest or weed control at 62 g/ha [2, 11] was 0% and the pest or weed control at 125 g/ha [2, 12] was 0%. The pest or weed control at 250 g/ha [2, 12] was 0%, the pest or weed control at 31 g/ha ([3]; post-emergence, Postemergence, read-out: Plant response rating (scale of 0 to 100), Goosegrass) was 0% and the pest or weed control at 62 g/ha [3, 13] was 0%. For the same compound, the pest or weed control at 125 g/ha [3, 13] was 0%, the pest or weed control at 250 g/ha ([3]; post-emergence, Postemergence, scale 0 to 100, read-out: Plant response rating, Goosegrass) was 0% and the pest or weed control at 31 g/ha [3, 14] was 0%. The pest or weed control at 62 g/ha [3, 14] was 0%, the pest or weed control at 125 g/ha [3, 15] was 0% and the pest or weed control at 250 g/ha [3, 15] was 0%. The pest or weed control at 31 g/ha ([4]; post-emergence, Postemergence, read-out: Plant response rating (scale of 0 to 100), Velvetleaf) was 25%, the pest or weed control at 62 g/ha [4, 16] was 55% and the pest or weed control at 125 g/ha [4, 16] was 55%. The pest or weed control at 250 g/ha ([4]; post-emergence, Postemergence, scale 0 to 100, read-out: Plant response rating, Velvetleaf) was 70%, the pest or weed control at 31 g/ha [4, 17] was 0% and the pest or weed control at 62 g/ha [4, 17] was 0%. It also gave a pest or weed control at 125 g/ha [4, 18] of 20%, a pest or weed control at 250 g/ha [4, 18] of 35% and a pest or weed control at 31 g/ha ([5]; post-emergence, Postemergence, read-out: Plant response rating (scale of 0 to 100), Kochia) of 20%. The pest or weed control at 62 g/ha [5, 19] was 65%, the pest or weed control at 125 g/ha [5, 19] was 90% and the pest or weed control at 250 g/ha ([5]; post-emergence, Postemergence, scale 0 to 100, read-out: Plant response rating, Kochia) was 100%. For the same compound, the pest or weed control at 31 g/ha [5, 20] was 0%, the pest or weed control at 62 g/ha [5, 20] was 0% and the pest or weed control at 125 g/ha [5, 21] was 20%. The pest or weed control at 250 g/ha [5, 21] was 30%, the pest or weed control at 31 g/ha ([6]; post-emergence, Postemergence, read-out: Plant response rating (scale of 0 to 100), Cocklebur) was 60% and the pest or weed control at 62 g/ha ([6]; post-emergence, Postemergence, scale 0 to 100 (0 no effect, 100 complete control), read-out: Cocklebur plant response rating) was 65%. For the same compound, the pest or weed control at 125 g/ha ([6]; post-emergence, Postemergence, 125 g ai/ha, scale 0 to 100 (0 no effect, 100 complete control), read-out: Cocklebur plant response rating) was 75%, the pest or weed control at 250 g/ha ([6]; post-emergence, Postemergence, 250 g ai/ha, scale 0 to 100, read-out: Plant response rating, Cocklebur) was 90% and the pest or weed control at 31 g/ha [6, 22] was 0%. For the same compound, the pest or weed control at 62 g/ha [6, 22] was 30%.

— patent publication US8802597B2, “Herbicidal pyrimidines” (E I du Pont de Nemours and Company, priority 2003, dated 2014)
